One data set addresses Keap1/Nrf2 (Homo sapiens, UniProt Q14145). The data set can be described thus: Keap1-Nrf2 protein-protein interaction inhibitors, dose response, biochemical, fluorescence polarization, cherry-picked samples (AID 588683).
For the next data set, the target named is T1, Cytochrome P450 1A2 (Homo sapiens, UniProt P05177).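 Further: PubChem cytochrome P450 panel assay, CYP1A2 panel member.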
T1 sequence (P05177 whole entry): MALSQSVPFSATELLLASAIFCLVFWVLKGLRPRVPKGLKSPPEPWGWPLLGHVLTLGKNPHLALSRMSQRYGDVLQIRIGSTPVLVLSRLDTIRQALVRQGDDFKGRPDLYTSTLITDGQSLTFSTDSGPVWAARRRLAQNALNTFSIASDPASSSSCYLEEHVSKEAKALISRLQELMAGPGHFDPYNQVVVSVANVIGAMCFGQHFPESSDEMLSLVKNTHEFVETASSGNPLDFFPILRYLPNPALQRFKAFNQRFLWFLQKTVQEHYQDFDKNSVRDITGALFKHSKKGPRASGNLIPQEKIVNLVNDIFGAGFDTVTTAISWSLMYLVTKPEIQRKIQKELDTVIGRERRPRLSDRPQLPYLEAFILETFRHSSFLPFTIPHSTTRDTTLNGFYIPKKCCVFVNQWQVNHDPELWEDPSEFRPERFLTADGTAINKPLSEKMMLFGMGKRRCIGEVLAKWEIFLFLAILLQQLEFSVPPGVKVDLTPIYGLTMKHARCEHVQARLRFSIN

The next data set concerns the target Cytochrome P450 2C19 (Homo sapiens, UniProt P33261). The data set can be described thus: Cytochrome panel assay with activity outcomes. Panel member name: p450-cyp2c19 Compounds with AC50 equal or less than 10 uM are considered active. Type of data set: functional.
The target of another data set is Cytochrome P450 3A4 (Homo sapiens, UniProt P08684).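 Further: CYP3A4 tested as one member of a cytochrome P450 panel screen.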
Another data set deals with Cytochrome P450 2C9 (Homo sapiens, UniProt P11712).
Cytochrome P450 2C9, sequence (P11712 whole entry): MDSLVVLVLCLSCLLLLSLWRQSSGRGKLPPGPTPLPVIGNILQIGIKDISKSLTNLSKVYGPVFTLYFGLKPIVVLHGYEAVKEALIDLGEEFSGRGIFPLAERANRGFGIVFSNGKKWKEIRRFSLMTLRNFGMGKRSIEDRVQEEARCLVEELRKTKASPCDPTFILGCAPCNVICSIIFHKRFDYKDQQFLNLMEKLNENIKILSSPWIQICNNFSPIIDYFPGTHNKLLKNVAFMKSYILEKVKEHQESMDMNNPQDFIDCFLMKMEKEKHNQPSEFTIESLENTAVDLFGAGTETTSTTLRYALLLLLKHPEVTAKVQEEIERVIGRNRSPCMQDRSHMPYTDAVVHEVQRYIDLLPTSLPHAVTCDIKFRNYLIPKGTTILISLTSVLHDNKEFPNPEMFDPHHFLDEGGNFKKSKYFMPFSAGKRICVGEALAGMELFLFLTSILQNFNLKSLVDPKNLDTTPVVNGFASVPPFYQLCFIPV
Another data set concerns the target CAAX prenyl protease 2 (Homo sapiens, UniProt Q9Y256). The data set can be described thus: human Rce1 protease inhibitors, dose response, biochemical, yeast membranes, quenched-peptide fluorescence, cherry-pick (AID 588849).
In data set [1] the target is 72 kDa type IV collagenase (Homo sapiens, UniProt P08253). The data set is described as follows: Dose Response validation of uHTS RPN11 inhibitor hits using a MMP-2 Fluorescence assay. It counts as functional.
72 kDa type IV collagenase, sequence (P08253 whole entry): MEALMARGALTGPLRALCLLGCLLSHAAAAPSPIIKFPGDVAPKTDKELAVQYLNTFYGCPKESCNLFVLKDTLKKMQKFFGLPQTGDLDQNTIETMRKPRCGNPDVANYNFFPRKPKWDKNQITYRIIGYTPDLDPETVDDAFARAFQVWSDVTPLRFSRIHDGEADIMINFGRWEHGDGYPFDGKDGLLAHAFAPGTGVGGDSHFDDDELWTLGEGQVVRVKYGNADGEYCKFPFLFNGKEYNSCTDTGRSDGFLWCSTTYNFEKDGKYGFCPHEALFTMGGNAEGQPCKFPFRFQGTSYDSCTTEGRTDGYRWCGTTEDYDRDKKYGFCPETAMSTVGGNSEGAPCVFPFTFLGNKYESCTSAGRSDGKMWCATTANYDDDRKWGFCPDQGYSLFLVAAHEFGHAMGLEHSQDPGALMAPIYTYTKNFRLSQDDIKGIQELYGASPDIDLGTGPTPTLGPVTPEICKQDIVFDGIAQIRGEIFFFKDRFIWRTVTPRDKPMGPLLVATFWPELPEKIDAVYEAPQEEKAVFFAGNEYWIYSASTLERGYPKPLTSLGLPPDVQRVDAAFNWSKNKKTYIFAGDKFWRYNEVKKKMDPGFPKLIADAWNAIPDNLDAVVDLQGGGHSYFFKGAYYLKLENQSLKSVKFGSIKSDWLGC
In data set [2] the target is Nuclear receptor subfamily 5 group A member 2 (Homo sapiens, UniProt O00482). It counts as functional, cell-based.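 Further: HEK293T cells transfected with LRH-1 and a StAR promoter luciferase reporter; potency for inhibitors that lower LRH-1 driven reporter light.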
Data set [3] has as its target Glucose-6-phosphate 1-dehydrogenase (Homo sapiens, UniProt P11413). The data set can be described thus: human G6PD enzyme inhibitors, dose response, selectivity assay for P. falciparum G6PD inhibitor project, biochemical, fluorescence (AID 504792). Type of data set: functional.
Data set [4] deals with T2, Zinc finger protein mex-5 (Caenorhabditis elegans, UniProt Q9XUB2).
T2 sequence (Q9XUB2 whole entry): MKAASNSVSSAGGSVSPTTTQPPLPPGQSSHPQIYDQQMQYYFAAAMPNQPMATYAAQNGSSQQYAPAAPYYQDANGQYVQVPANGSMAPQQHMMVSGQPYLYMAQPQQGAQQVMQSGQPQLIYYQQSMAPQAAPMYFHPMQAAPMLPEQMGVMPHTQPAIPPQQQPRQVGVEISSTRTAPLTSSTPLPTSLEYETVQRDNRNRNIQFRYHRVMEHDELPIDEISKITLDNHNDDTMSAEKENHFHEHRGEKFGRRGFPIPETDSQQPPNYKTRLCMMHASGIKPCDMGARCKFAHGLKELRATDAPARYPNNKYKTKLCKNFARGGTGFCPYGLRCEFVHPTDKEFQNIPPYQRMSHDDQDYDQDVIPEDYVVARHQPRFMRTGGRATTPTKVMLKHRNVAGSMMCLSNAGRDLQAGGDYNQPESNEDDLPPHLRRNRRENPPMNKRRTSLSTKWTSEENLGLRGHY
The data set is described as follows: MEX-5/TCR-2 RNA interaction inhibitors, dose response, biochemical, C. elegans, fluorescence polarization (AID 1960). Background: Polarisation of emitted light reports the rotation of a fluorescent probe.

A short description of data set [5]: StAR promoter reporter inhibition counter-screen, dose response, counter-screen for LRH-1 inverse agonist project, cell-based, luminescence, luciferase reporter (AID 651969). It counts as functional.
Data set [6] has as its target DNA repair protein RAD52 homolog (Homo sapiens, UniProt P43351). It counts as functional, biochemical.
A further data set addresses Prothrombin (Bos taurus, UniProt P00735). The data set can be described thus: thrombin inhibition, dose response, biochemical, fluorescence polarization, uHTS hits (AID 602369). It counts as functional.
The next data set addresses Steroidogenic factor 1 (Homo sapiens, UniProt Q13285). The data set can be described thus: Counterscreen for inverse agonists of the liver receptor homolog-1 (LRH-1; NR5A2): Luminescence-based cell-based high throughput dose response assay to identify inverse agonists of the Steroidogenic Factor 1 Nuclear Receptor (SF1; NR5A1). Type of data set: functional. On the technique in general: The purpose of a counterscreen is to sort out artefacts and off-target activity.

Data set [7] deals with 26S proteasome non-ATPase regulatory subunit 14 (Homo sapiens, UniProt O00487). The data set is described as follows: inhibition of proteasome subunit RPN11 – biochemical, fluorescence polarization, uHTS hits, confirmation (AID 602368). Type of data set: functional.
Data set [8] deals with T3, RNA-binding protein pos-1 (Caenorhabditis elegans, UniProt G5EF15).
T3 sequence (G5EF15 whole entry): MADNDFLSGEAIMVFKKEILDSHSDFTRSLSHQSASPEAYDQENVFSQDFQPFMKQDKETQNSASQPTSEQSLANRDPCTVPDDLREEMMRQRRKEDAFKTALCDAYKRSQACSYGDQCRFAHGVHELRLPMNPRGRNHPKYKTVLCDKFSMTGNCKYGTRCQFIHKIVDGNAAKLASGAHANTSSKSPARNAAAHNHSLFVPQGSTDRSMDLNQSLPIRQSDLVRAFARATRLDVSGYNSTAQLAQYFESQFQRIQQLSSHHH
The data set can be described thus: inhibitors of POS-1/mex-3 RNA binding, dose response, biochemical, fluorescence polarization (AID 1964).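 Further: purified POS-1 fused to maltose binding protein made in E. coli; potency of compounds blocking POS-1 binding to fluorescent RNA.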

A further data set concerns Jurkat. The data set can be described thus: SAR Analysis of small molecule inhibitors of T-cell specific antigen receptor-induced NF-kB activation in a Jurkat cell line using a luminescence assay - Set 2. [Related pubchem assays (depositor defined):AID435003, AID435012, AID465]. It counts as functional, cell-based. The settings on record: Homo sapiens.
The test system of data set [9] is HEK293. The data set can be described thus: SAR Analysis of small molecule inhibitors of T-cell specific antigen receptor-induced NF-kB activation in a HEK-293T cell line using a luminescence assay - Set 2. [Related pubchem assays (depositor defined):AID435003, AID435012, AID489026]. The settings on record: Homo sapiens. Type of data set: functional, cell-based.

Data set [10] relates to HEK293. The data set is described as follows: cytotoxicity in HEK293T NF-kB-Luc cells, SAR follow-up, cytotoxicity control for NF-kB activator project, cell-based, resazurin fluorescence (AID 493251). It counts as functional. The settings on record: Homo sapiens, HEK293.
Data set [11] addresses Voltage-gated inwardly rectifying potassium channel KCNH2 (Homo sapiens, UniProt Q12809). As to conditions: Potency.
The target in the next data set is Trypsin (Sus scrofa, UniProt P00761). The data set is described as follows: porcine trypsin inhibitors, dose response, selectivity assay for Rce1 protease inhibitor project, biochemical, quenched peptide fluorescence, cherry-pick (AID 488789).
Trypsin, sequence (P00761 whole entry): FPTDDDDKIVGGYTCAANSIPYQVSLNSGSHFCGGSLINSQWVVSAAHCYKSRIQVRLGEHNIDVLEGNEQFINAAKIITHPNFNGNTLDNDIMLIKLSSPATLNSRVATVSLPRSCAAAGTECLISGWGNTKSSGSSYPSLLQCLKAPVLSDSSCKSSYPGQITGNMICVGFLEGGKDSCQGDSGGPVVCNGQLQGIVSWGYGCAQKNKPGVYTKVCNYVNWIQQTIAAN
The target in data set [12] is DNA dC->dU-editing enzyme APOBEC-3G (Homo sapiens, UniProt Q9HC16). The data set can be described thus: Dose Response confirmation of small molecule APOBEC3G DNA Deaminase Inhibitors via a fluorescence-based single-stranded DNA deaminase assay. [Related pubchem assays (depositor defined):AID493012, AID493028]. It counts as functional.
For data set [13], the target named is T4, Mannose-6-phosphate isomerase (Homo sapiens, UniProt P34949).
T4 sequence (P34949 whole entry): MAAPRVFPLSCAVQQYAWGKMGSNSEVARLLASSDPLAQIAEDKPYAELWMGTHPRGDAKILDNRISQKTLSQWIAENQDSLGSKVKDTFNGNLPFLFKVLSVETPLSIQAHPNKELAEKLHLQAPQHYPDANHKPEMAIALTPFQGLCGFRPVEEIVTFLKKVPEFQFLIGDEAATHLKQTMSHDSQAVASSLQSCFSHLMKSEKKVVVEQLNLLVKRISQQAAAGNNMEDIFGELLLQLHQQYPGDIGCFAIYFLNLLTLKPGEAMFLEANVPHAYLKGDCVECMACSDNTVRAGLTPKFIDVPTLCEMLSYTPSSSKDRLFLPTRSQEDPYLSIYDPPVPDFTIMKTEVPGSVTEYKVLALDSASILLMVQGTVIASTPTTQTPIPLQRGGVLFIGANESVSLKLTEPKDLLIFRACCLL
The data set is described as follows: inhibitors of human PMI, primary screen, biochemical, fluorescence intensity, coupled assay (AID 1209).

The target in another data set is Phosphomannomutase 2 (Homo sapiens, UniProt O15305). The data set is described as follows: Counter screen SAR assay for PMM2 inhibitors via a fluorescence intensity assay. [Related pubchem assays (depositor defined):AID1545, AID1574].
Phosphomannomutase 2, sequence (O15305 whole entry): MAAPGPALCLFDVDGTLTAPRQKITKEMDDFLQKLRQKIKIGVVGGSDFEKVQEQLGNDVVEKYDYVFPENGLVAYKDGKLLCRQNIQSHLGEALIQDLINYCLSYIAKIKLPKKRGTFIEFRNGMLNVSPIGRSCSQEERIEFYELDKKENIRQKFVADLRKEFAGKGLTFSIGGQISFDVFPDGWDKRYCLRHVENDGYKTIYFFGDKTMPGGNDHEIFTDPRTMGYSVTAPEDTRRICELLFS
The target of data set [14] is DNA dC->dU-editing enzyme APOBEC-3A (Homo sapiens, UniProt P31941). The data set can be described thus: APOBEC3A DNA deaminase inhibitors, dose response, biochemical (AID 504722). It counts as functional.
DNA dC->dU-editing enzyme APOBEC-3A, sequence (P31941 whole entry): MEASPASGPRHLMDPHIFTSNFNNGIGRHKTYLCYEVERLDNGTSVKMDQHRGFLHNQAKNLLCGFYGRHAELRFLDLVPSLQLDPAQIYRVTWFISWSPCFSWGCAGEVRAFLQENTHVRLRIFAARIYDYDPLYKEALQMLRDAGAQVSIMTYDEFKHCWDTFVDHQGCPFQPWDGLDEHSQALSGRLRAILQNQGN
Data set [15] has as its target T4, Mannose-6-phosphate isomerase. The data set is described as follows: PMI enzyme inhibitors, confirmation, biochemical, fluorescence intensity (AID 1535).
The next data set addresses Beta Lactamase (Pseudomonas aeruginosa, UniProt Q932Y6). The data set can be described thus: beta-lactamase reporter inhibitor potency, dose response, artefact control for TLR9-MyD88 binding inhibitor project, BLA reporter cells, FRET fluorescence (AID 588341).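 Further: cell based assay in CHO-K1 cells stably expressing beta-lactamase.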 It counts as cell-based.
Data set [16] concerns the target Heat shock protein HSP 90-alpha (Homo sapiens, UniProt P07900). It counts as functional, organism-based.
The subject of a further data set is CHO. The data set can be described thus: cytotoxicity in TLR9-MyD88 CHO cells, dose response, cytotoxicity control for TLR9-MyD88 binding inhibitor project, cell-based, luminescence (AID 588339).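 Further: CHO cells stably coexpressing TLR9 and MyD88 fusions from primary screen; compound exposure lasted 48 hours before viability readout.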 As to conditions: Cricetulus griseus. It counts as functional, hamster.

SMILES strings stand for the structures. Activity calls are given as the source filed them.

Glucose-6-phosphate 1-dehydrogenase, sequence (P11413 whole entry): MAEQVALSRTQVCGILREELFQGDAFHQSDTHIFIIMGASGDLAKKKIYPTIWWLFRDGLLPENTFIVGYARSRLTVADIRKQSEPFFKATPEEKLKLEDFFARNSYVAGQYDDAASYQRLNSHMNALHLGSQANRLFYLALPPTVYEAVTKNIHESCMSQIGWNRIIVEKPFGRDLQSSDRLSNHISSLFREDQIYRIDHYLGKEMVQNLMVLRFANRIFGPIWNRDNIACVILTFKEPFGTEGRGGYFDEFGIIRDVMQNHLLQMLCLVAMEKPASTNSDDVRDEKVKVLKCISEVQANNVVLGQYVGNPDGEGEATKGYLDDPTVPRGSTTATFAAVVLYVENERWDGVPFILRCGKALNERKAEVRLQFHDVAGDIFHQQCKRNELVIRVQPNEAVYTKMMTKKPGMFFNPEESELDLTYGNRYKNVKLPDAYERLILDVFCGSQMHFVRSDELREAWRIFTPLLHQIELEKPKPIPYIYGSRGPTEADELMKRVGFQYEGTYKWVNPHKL
CAAX prenyl protease 2, sequence (Q9Y256 whole entry): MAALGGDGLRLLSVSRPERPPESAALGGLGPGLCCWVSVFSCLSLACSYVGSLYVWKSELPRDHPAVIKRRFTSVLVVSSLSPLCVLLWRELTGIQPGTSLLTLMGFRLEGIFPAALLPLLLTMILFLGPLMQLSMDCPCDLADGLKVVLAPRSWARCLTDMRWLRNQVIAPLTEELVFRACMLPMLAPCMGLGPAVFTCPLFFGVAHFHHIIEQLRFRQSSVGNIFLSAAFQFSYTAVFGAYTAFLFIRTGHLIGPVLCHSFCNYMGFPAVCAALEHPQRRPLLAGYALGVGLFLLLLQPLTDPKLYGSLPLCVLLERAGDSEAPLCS
DNA repair protein RAD52 homolog, sequence (P43351 whole entry): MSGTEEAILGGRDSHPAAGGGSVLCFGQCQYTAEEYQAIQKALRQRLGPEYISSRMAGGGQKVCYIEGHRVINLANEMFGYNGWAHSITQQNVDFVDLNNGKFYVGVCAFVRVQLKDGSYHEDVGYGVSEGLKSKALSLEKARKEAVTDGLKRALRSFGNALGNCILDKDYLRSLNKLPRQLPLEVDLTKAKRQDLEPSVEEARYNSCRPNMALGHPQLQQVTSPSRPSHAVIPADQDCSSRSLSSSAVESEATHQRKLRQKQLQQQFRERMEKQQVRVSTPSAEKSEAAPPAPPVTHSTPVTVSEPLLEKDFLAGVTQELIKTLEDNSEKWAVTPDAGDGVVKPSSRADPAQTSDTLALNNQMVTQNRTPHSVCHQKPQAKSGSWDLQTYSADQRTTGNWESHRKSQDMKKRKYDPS
Voltage-gated inwardly rectifying potassium channel KCNH2, sequence (Q12809 whole entry): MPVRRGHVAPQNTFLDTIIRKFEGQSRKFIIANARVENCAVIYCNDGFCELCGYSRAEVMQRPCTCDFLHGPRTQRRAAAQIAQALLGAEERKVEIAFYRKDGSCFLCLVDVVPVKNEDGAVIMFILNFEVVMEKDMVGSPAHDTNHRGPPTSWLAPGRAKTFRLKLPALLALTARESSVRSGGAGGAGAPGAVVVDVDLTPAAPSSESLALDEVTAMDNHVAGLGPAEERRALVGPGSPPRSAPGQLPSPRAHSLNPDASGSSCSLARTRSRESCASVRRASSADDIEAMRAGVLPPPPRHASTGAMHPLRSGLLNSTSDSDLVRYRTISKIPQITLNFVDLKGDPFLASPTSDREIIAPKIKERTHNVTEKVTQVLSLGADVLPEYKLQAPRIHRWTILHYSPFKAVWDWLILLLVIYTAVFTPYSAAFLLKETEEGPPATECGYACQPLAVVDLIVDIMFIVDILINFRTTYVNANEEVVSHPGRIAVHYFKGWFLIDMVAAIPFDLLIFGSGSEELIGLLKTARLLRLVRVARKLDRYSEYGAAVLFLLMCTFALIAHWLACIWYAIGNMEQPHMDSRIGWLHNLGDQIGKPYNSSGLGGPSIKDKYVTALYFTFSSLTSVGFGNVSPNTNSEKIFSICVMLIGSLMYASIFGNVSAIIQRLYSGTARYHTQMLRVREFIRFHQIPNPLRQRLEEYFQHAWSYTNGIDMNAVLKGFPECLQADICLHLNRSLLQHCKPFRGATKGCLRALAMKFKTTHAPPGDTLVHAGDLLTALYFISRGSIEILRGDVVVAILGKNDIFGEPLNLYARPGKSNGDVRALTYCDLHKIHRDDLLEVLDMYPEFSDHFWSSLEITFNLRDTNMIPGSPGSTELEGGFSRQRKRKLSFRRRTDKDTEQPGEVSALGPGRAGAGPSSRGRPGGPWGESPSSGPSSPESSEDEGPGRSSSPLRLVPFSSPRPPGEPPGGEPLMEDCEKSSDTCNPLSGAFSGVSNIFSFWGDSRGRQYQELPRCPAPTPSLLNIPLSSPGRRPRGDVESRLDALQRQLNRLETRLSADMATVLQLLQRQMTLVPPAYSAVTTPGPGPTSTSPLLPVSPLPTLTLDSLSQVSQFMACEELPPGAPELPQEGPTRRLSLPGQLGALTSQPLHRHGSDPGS
Cytochrome P450 2C19, sequence (P33261 whole entry): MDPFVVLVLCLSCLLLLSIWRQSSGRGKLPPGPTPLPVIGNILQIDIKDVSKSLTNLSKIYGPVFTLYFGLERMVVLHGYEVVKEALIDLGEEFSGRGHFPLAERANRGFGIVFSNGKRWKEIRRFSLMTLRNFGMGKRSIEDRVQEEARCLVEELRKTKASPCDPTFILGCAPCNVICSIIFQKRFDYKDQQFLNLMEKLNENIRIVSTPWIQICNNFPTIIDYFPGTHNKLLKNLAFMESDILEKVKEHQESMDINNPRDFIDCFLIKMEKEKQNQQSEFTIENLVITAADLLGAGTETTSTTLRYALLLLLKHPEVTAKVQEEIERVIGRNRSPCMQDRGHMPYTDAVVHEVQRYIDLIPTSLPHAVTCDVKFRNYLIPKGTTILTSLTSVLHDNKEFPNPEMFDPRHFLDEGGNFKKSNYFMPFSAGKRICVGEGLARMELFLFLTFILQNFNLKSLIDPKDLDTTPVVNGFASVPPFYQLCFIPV

Usually AC50 stands for the concentration giving half of the maximal activity seen. Turning to `CC(C)N1CC=C2C(C#N)=C(N)C(C#N)(C#N)C(c3ccccc3)C2C1` (stereo not drawn), on Keap1/Nrf2, the AC50 is > 52 µM (inactive).
`N#Cc1ccc(CN2CCCC3(CCN(C(=O)c4ccncc4)CC3)C2)cc1`: the concentration at half-maximal activity (AC50) entry is “inconclusive” on Cytochrome P450 1A2, “inconclusive” at Cytochrome P450 2C19, 1.58 µM (inconclusive) at Cytochrome P450 3A4 and “inconclusive” at Cytochrome P450 2C9.
As to `Cc1nc(N2CCCCC2C)c2c(C)c(C(=O)Nc3ccccc3C(F)(F)F)sc2n1` (stereo not drawn), the concentration at half-maximal activity (AC50) on CAAX prenyl protease 2 is 6.65 µM (active).
In general, IC50 refers to the midpoint of a concentration-inhibition curve. The term EC50 denotes the concentration that produces a half-maximal response. A lower EC50 goes with higher potency in that assay. Take `O=C(CCl)NCCN1C(=O)S/C(=C\c2cccnc2)C1=O`: the half-maximal inhibitory concentration (IC50) in data set [1] is 21.2 µM (active); in [2], 8.94 µM (active); in data set [3], > 80 µM (inactive); in data set [5], 26.4 µM (inactive); at Prothrombin, > 100 µM (inactive); on Steroidogenic factor 1, 3.69 µM (active). Further, in [7], the 50% inhibitory concentration (IC50) is 7.21 µM (active). Moreover, the EC50 in [4] and in data set [8] was > 300 µM (not active) in each case. The half-maximal activity concentration (AC50) in [6] was 2.24 µM (active).
Consider `COc1ccc(C(NC(=O)Cc2ccccc2)c2ccc3cccnc3c2O)cc1OC` (stereo not drawn), for which the concentration for half-maximal inhibition (IC50) with Jurkat is 2.24 µM (active); in the data set on HEK293 [9] it was 2.61 µM (active); in the data set with HEK293 [10], 11.2 µM (active).
In the case of `O=C(O)c1cc(O)c2ccc(Cl)cc2n1` [7-CHLOROKYNURENIC ACID], the AC50 entry was “inconclusive” on Cytochrome P450 1A2, 6.31 µM (inconclusive) in data set [11] and “inconclusive” at Cytochrome P450 2C9.
Consider `CCOC(=O)c1sc2nc(C3CC3)cc(-c3ccc(OC)cc3)c2c1N`, for which the AC50 is 14.8 µM (active) at CAAX prenyl protease 2 and 0.642 µM (active) at Trypsin.
Regarding `CCSc1nnc(S)s1`, the half-inhibitory concentration (IC50) in data set [12] is 7.81 µM (active); in data set [13], 49.7 µM (active); at Phosphomannomutase 2, > 100 µM (inactive); in data set [14], > 100 µM (inactive); in data set [15], 44.2 µM (active).
In the case of `O=C1C=CC(=O)N1CCCCCCCCCCN1C(=O)C=CC1=O`, the IC50 on Beta Lactamase was 16.3 µM (inactive); in data set [3], > 80 µM (inactive); in the data set with CHO, 1.82 µM (active). Further, the concentration at half-maximal activity (AC50) in data set [16] is 1.49 µM (active).

The record behind these values is ChEMBL document CHEMBL1201862, “PubChem BioAssay data set” (2004).
